Source: ChEMBL document CHEMBL1201862, “PubChem BioAssay data set” (2004)
The source made the active and inactive calls.

Key:
[1] = HEK-293T cell viability reduction – luminescence, B-cell screen hits, cytotoxicity control for BCR NF-kB inhibitor project, dose response (AID 489021); format: functional, cell-based;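 also: HEK-293T cells carrying an NF-kB luciferase reporter; cells exposed to compound for about 14 hours before viability readout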
[2] = target: Prothrombin (Homo sapiens, UniProt P00734); assay: Thrombin 1536 HTS Dose Response Confirmation. [Related pubchem assays: 1046 (Thrombin 1536 HTS; hits were confirmed in this assay)]; format: functional
[3] = target: T1, Leucine aminopeptidase (Plasmodium falciparum 3D7, UniProt Q8IL11); assay: P. falciparum M17LAP inhibitors, primary screen, biochemical, fluorogenic H-Leu-NHMec substrate, 1536-well (AID 1619); format: functional
T1 sequence (Q8IL11 whole entry): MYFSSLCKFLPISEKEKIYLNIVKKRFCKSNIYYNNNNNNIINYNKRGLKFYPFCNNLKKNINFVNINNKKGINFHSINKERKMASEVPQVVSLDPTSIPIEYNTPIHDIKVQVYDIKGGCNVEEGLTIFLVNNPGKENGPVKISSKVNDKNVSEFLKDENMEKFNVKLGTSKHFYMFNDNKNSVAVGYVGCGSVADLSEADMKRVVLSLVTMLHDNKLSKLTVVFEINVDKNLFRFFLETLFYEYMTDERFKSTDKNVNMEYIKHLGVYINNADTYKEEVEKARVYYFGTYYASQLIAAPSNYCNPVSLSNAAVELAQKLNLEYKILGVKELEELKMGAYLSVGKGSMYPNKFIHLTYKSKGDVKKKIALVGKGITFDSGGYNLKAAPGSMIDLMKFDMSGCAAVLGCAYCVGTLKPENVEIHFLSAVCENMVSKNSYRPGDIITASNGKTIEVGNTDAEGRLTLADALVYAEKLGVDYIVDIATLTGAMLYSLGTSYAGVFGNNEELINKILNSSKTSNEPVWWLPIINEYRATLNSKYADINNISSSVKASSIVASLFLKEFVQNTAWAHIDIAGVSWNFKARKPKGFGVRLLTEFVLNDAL

[4] = test system: HEK293; assay: EBV LMP1 TES2 canonical NF-kB signalling blockers – cell-based, HEK293, luciferase, cherry-pick, dose response (AID 588343); format: functional; conditions: Homo sapiens
[5] = Luminescence Cell-Based Dose Confirmation HTS to Identify Activators of 5'UTR Stem-Loop Driven Alpha-Synuclein mRNA Translation in H4 Neuroglioblastoma Cells. [Related pubchem assays: 1829 (Project Summary), 1814 (Primary HTS)]; format: functional
[6] = Luminescence Cell-Based Dose Response HTS to Identify Activators of Luciferase Translation or Activity in H4 […] Cells. [Related pubchem assays: 1829 (Project Summary), 1814 (Primary HTS)]; format: functional
[7] = test system: H4; assay: Luminescence Cell-Based Dose Response HTS to Identify Activators of 5'UTR Stem-Loop Driven Prion Protein mRNA Translation in H4 Neuroglioblastoma Cells. [Related pubchem assays: 1829 (Project Summary), 1814 (Primary HTS)]; format: functional; conditions: Homo sapiens
[8] = viability of uninfected HEp-2 cells – cell-based, HTS, cytotoxicity control for RSV inhibitor project, dose response (AID 2410); format: functional; conditions: human respiratory syncytial virus
[9] = target: Glucose-6-phosphate 1-dehydrogenase (Homo sapiens, UniProt P11413); assay: inhibition of Homo sapiens G6PD, dose series – biochemical, fluorescence, selectivity assay for P. falciparum G6PD inhibitor project, dose response (AID 504792); format: functional
Chain of Glucose-6-phosphate 1-dehydrogenase (P11413 whole entry): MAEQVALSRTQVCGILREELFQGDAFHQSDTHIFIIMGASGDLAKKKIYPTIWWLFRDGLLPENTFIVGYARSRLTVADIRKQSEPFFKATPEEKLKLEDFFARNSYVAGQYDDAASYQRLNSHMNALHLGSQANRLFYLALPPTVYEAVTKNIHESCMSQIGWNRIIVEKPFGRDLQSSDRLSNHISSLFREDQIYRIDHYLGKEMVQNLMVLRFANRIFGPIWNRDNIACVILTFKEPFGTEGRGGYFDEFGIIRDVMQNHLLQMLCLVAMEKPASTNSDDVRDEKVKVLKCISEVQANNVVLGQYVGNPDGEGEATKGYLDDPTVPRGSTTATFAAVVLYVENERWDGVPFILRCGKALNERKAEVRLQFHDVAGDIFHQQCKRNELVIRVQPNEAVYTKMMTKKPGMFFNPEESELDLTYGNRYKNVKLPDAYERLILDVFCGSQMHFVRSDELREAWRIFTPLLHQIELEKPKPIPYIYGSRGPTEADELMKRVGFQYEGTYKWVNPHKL

[10] = target: Cytochrome P450 2C9 (Homo sapiens, UniProt P11712)
Chain of Cytochrome P450 2C9 (P11712 whole entry): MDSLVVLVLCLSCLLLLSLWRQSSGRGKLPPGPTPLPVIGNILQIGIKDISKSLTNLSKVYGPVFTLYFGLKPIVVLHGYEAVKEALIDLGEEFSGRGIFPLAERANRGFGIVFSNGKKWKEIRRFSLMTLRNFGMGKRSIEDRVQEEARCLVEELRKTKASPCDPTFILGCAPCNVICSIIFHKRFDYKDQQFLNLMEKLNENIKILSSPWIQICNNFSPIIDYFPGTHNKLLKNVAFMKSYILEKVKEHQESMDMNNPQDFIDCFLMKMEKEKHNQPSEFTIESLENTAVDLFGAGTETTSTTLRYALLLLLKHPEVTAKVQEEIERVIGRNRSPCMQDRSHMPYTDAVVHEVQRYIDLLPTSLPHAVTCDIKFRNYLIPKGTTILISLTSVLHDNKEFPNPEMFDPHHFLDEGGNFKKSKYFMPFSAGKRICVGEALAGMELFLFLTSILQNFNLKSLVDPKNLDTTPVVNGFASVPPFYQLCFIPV

[11] = target: T2, Histone-lysine N-methyltransferase NSD2 (Homo sapiens, UniProt O96028); format: biochemical
T2 sequence (O96028 whole entry): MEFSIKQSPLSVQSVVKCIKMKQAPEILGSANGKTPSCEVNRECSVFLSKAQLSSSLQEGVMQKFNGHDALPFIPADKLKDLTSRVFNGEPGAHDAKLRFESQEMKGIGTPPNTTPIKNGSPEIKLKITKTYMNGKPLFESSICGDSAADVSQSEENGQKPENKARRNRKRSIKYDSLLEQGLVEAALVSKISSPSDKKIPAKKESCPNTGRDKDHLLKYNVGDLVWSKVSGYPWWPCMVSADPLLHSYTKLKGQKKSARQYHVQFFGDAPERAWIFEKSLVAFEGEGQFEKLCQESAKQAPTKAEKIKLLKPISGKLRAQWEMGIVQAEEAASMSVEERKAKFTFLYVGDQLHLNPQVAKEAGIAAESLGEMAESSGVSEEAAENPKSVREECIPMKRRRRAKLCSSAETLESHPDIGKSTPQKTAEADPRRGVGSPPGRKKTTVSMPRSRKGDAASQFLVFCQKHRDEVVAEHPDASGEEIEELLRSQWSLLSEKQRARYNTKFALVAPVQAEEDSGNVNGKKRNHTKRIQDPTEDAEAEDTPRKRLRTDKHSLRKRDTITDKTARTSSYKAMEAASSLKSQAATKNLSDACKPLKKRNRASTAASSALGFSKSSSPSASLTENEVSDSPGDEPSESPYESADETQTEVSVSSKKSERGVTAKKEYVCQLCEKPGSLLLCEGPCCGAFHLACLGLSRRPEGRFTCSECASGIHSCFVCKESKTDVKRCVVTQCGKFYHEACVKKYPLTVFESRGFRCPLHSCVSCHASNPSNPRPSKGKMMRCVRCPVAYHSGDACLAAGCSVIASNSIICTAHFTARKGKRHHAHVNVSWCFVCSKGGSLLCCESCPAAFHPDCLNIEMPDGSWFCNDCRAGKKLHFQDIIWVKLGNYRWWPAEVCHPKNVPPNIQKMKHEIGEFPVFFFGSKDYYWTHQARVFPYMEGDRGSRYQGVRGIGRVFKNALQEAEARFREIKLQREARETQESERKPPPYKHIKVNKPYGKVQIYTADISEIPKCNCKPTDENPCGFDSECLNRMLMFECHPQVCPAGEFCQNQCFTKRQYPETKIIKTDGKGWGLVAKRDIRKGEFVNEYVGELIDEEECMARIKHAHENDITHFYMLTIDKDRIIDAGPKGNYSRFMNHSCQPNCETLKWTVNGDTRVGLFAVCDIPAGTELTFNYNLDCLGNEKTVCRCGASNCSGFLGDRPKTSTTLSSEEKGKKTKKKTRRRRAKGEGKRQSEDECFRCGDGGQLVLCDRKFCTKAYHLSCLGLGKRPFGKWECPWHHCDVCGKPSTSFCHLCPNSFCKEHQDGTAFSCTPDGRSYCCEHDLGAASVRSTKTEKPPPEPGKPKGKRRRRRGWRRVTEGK

[12] = target: T3, Corticotropin-releasing factor receptor 2/Corticotropin-releasing factor-binding protein (Homo sapiens, UniProt P24387+Q13324); assay: Dose Response confirmation of uHTS hits for small molecule antagonists of the CRF-binding protein and CRF-R2 receptor complex.; format: functional; conditions: read-out: IC50_Mean
T3 sequence (Q13324 whole entry): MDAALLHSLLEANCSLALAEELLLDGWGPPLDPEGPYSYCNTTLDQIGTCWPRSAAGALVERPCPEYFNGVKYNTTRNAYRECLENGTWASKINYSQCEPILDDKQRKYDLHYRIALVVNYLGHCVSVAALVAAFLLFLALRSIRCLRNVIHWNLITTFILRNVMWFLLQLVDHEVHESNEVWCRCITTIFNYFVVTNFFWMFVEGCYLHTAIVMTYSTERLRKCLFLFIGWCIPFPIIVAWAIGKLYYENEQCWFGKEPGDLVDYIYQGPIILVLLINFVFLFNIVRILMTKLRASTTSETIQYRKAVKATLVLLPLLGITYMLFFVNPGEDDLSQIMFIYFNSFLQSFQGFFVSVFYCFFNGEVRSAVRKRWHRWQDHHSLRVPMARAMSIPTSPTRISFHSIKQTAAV
T3 sequence (P24387 whole entry): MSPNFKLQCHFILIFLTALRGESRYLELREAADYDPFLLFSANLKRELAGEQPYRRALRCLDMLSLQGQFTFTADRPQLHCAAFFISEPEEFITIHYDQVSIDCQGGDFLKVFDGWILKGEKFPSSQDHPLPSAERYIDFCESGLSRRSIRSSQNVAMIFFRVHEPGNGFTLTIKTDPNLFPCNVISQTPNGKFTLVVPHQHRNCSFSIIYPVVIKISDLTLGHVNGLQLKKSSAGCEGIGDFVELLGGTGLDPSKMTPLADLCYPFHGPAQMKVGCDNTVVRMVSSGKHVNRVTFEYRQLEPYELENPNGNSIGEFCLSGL

[13] = target: T3, Corticotropin-releasing factor receptor 2/Corticotropin-releasing factor-binding protein; assay: activators of CRF receptor 2 with binding protein – uHTS hits, confirmation (AID 602473); format: functional; conditions: read-out: EC50_Mean
[14] = Trypanosoma cruzi growth suppression in host cells – NIH3T3 host cells, beta-gal luminescence, confirmation (AID 2044); format: functional, cell-based;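 also: intracellular parasites grown in NIH/3T3 mouse fibroblasts as host cells; luminescent beta-galactosidase reporter signal from transgenic T. cruzi replicating inside host cells; inhibitors lower the luminescence signal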
[15] = NIH3T3 cell viability loss – ATP luminescence, mouse fibroblasts, counter-screen, dose response (AID 2010); format: functional, cell-based;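 also: cells exposed to compound for about 90 hours before reading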
[16] = target: SUMO-activating enzyme (Homo sapiens, UniProt Q9UBT2); assay: blockers of UBC9-mediated SUMO conjugation – biochemical, AlphaScreen, SUMOylation inhibitor project, confirmation (AID 2018); format: functional
Chain of SUMO-activating enzyme (Q9UBE0 whole entry): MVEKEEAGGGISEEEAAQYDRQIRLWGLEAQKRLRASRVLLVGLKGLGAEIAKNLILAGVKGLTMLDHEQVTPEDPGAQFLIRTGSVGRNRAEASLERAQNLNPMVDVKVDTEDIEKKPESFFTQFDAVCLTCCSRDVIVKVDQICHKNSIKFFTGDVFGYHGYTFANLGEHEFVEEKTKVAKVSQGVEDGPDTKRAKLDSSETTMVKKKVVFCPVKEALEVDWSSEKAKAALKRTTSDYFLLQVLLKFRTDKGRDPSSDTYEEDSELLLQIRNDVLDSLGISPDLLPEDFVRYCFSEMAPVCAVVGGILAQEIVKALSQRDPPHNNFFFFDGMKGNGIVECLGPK
Chain of SUMO-activating enzyme (Q9UBT2 whole entry): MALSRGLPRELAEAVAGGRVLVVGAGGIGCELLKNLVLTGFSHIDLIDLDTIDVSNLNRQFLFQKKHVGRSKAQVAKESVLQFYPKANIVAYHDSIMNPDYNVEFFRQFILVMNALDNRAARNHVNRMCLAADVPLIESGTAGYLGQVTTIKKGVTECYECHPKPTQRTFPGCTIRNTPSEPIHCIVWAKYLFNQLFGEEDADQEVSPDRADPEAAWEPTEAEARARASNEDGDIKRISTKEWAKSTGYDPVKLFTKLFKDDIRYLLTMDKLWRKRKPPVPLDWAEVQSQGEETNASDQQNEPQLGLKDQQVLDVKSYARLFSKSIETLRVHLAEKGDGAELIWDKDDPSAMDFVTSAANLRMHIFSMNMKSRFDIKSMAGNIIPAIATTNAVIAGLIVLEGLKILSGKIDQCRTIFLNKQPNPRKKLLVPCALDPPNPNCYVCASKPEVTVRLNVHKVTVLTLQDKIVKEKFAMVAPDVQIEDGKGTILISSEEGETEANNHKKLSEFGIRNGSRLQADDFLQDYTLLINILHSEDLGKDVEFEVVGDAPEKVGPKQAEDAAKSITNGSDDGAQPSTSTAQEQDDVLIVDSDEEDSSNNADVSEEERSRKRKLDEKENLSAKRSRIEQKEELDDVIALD

[17] = target: DNA dC->dU-editing enzyme APOBEC-3G (Homo sapiens, UniProt Q9HC16); assay: Dose Response confirmation of small molecule APOBEC3G DNA Deaminase Inhibitors via a fluorescence-based single-stranded DNA deaminase assay. [Related pubchem assays (depositor defined):AID493012, AID493028]; format: functional
Chain of DNA dC->dU-editing enzyme APOBEC-3G (Q9HC16 whole entry): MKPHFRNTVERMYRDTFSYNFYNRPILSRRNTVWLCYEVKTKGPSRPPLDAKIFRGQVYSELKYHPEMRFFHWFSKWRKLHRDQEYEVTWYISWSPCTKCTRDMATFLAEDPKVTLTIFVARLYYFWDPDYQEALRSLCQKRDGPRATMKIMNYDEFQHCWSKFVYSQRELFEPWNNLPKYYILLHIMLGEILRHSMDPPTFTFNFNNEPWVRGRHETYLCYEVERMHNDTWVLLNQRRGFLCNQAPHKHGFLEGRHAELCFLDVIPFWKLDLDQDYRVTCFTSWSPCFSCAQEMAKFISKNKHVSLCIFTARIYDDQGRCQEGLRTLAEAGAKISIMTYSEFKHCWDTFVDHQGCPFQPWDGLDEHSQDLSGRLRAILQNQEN

[18] = reduction of Shn3 3'UTR-driven luciferase in osteoblasts – cell-based, Clone20 osteoblasts, firefly luciferase, cherry-picked, dose response (AID 624132); format: functional;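 also: firefly luciferase luminescence from reporter carrying the Shn3 3'UTR in osteoblasts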
[19] = loss of viability in HepG2 cells – cell-based, CellTiter-Glo, cherry-picked, cytotoxicity control for Shn3 inhibitor project, dose response (AID 624134); format: functional
[20] = non-specific 3'UTR reporter inhibition in Clone20-Shn3RL – cell-based, Renilla luciferase, cherry-picked, counter-screen for Shn3 inhibitor project, dose response (AID 624133); format: functional
[21] = target: T4, Fatty acid synthase (Homo sapiens, UniProt P49327); assay: inhibition of human FAS-TE enzyme activity – biochemical, endpoint fluorescence intensity, uHTS hits, dose response (AID 624327); format: functional;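 also: fluorescence from hydrolysis of an O-methyl fluorescein acyl ester substrate by the enzyme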
T4 sequence (P49327 whole entry): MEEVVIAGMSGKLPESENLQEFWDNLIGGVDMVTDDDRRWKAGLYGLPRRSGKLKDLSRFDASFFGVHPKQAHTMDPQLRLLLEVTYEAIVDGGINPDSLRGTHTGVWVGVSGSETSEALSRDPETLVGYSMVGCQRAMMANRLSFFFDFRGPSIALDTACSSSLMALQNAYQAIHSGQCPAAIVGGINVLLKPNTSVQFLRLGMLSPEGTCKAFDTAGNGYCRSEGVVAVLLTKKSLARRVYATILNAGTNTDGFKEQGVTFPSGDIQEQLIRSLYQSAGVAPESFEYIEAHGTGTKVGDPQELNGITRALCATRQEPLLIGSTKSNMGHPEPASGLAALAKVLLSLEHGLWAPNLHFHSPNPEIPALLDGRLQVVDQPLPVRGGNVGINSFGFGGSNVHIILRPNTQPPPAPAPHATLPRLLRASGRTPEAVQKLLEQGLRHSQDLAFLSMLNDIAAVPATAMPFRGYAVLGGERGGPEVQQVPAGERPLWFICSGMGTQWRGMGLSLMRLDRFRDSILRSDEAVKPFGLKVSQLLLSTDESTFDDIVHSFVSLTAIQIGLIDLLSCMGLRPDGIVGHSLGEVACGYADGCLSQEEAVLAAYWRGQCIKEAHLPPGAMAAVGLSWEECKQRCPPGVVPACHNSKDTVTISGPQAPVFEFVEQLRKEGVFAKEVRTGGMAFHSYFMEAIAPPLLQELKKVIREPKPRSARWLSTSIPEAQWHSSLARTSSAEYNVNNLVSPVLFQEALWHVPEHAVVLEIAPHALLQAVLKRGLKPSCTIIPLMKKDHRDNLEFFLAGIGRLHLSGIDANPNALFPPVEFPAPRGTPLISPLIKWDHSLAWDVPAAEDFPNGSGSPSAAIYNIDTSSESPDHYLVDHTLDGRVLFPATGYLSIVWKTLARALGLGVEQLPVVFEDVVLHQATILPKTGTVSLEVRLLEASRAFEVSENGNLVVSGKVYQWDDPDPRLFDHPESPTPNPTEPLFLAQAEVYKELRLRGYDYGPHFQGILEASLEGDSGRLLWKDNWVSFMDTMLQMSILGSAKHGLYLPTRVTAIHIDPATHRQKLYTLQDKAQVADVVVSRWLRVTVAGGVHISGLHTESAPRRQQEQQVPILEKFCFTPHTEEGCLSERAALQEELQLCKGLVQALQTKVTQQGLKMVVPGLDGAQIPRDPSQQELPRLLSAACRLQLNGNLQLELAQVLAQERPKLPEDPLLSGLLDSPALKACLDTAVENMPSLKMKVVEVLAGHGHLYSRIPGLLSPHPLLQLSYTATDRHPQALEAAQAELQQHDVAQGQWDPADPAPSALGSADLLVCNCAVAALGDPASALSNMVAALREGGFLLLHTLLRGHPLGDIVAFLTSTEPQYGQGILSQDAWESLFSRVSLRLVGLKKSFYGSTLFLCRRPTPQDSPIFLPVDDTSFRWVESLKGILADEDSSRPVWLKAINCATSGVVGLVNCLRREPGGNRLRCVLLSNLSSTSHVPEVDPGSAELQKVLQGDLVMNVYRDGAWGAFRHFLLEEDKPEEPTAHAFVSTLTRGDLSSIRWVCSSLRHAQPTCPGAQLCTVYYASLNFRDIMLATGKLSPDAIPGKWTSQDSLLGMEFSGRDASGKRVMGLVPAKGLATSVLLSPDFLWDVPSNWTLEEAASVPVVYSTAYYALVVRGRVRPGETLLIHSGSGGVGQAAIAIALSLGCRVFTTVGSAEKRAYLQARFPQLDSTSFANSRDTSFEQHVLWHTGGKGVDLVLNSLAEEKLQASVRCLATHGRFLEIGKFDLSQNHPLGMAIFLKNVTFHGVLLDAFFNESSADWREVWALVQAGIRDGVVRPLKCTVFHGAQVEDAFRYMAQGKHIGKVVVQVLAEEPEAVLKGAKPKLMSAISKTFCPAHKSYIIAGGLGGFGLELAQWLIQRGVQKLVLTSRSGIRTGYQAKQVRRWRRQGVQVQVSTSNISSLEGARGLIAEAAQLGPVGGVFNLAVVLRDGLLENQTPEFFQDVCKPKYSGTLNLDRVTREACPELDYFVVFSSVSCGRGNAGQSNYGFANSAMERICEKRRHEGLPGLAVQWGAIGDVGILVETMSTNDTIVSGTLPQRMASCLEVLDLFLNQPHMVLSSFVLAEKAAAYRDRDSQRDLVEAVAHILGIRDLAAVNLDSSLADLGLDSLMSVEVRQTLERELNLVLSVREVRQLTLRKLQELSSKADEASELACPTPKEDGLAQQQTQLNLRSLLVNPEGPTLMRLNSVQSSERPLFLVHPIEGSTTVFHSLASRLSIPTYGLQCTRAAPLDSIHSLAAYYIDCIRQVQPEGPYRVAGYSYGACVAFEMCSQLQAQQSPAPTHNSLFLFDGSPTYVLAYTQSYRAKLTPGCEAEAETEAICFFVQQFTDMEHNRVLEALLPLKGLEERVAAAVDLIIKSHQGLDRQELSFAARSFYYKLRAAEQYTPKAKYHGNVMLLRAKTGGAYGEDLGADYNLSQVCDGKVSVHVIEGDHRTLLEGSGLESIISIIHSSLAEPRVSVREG

[22] = target: T4, Fatty acid synthase; assay: inhibition of human FAS-TE enzyme activity – biochemical, kinetic fluorescence intensity, dose response (AID 624326); format: functional;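 also: rate of fluorescence rise from hydrolysis of a fluorogenic O-methyl fluorescein ester substrate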

## Cn1c(=O)n(C)c2cc(NS(=O)(=O)c3ccccc3)ccc21
[1]
  IC50: > 80 µM (inactive)

## CC(C(=O)NCc1ccccn1)N1C(=O)c2ccccc2C1=O (stereo not drawn)
[2]
  IC50: > 50 µM (not active)

## Cc1sc(NC(=O)C2CCCCC2C(=O)O)c(C(N)=O)c1-c1ccccc1 (stereo not drawn)
[3]
  IC50: 11 µM (active)

## CC(C)(C)c1ccc(C(=O)Nc2nnc(SCC(=O)NCC3CCCO3)s2)cc1 (stereo not drawn)
[4]
  AC50: 2.11 µM (active)

## C=CCNC(=O)C(C#N)c1nc2ccccc2nc1N1CCN(Cc2ccccc2)CC1 (stereo not drawn)
[2]
  IC50: > 50 µM (inconclusive)

## CCOC(=O)c1cnn(-c2ncnc3sc4c(c23)CCC4)c1N
[5]
  EC50: 13.8 µM (active)
[6]
  EC50: 29.1 µM (active)
[7]
  EC50: 11.9 µM (active)
[2]
  IC50: > 50 µM (not active)

## CCn1c2ccccc2c2cc(/C=N/n3cnnc3S)ccc21
[8]
  CC50: 25.1 µM (active)
[9]
  IC50: > 80 µM (inactive)
[4]
  AC50: 10.7 µM (active)
[10]
  AC50: 31.6 µM (inconclusive)

## CN(C)CCNc1ncnc2oc(-c3ccccc3)c(-c3ccccc3)c12
[11]
  AC50: > 20 µM (inactive)

## COc1ccnc(CSC(=N)Nc2ccc(F)cc2)c1
[12]
  IC50: > 47.1 µM (inactive)
[13]
  EC50: 32 µM (active)

## CC/C(NCCCN(CC)CC)=C1/C(=O)NC(=O)N(C2CCCCC2)C1=O
[14]
  EC50: 0.171 µM (active)
[15]
  EC50: > 60 µM (not active)
[11]
  AC50: > 20 µM (inactive)

## Cc1ccc2c(SCC(=O)NCc3ccco3)nc(-c3ccc(F)cc3)nc2c1
[16]
  IC50: 50.1 µM (active)

## COc1ccc(CNc2nc(-c3cccnc3)nn2C(=O)CC(C)C)cc1
[2]
  IC50: 0.336 µM (active)

## Cc1c(O)ccc(-c2[nH]ncc2-c2nc3ccccc3s2)c1O
[3]
  IC50: 6.97 µM (active)

## C=CCSc1nnc(NC(=O)c2ccc(Cl)nc2)s1
[9]
  IC50: > 80 µM (inactive)

## Cc1ccc(/C=C2\SC(=S)N(CCCC(=O)NC3CCCC3)C2=O)cc1
[1]
  IC50: > 80 µM (inactive)

## Cc1c(CC(=O)NCCCC(=O)O)c(=O)oc2cc3c(cc12)CCC(C)(C)O3
[1]
  IC50: > 80 µM (inactive)

## CCOC(=O)c1c(N)sc(C(=O)N2CCCCC2)c1C
[12]
  IC50: > 47.1 µM (inactive)
[13]
  EC50: > 53 µM (inactive)

## O=C(NC1CCCCCC1)c1ccc[nH]c1=S
[17]
  IC50: 21.9 µM (active)

## O=C(COC(=O)CCc1ccccc1)Nc1ncc(Cl)cc1Cl
[2]
  IC50: 8.03 µM (active)

## Cc1cc(S(=O)(=O)c2ccc(Cl)cc2)nc(S(=O)(=O)c2ccc(Cl)cc2)c1C#N
[4]
  AC50: 9.23 µM (active)
[18]
  AC50: 2.83 µM (active)
[19]
  AC50: 25.9 µM (active)
[20]
  AC50: 21.2 µM (active)
[21]
  IC50: 7.57 µM (active)
[22]
  IC50: 10.4 µM (active)

## O=C(O)c1cccc(NC(=S)N/N=C/c2c[nH]c3ccccc23)c1
[3]
  IC50: 17.6 µM (active)

## CCCc1cc(=O)c2c(O)ccc(OC)c2o1
[4]
  AC50: > 350 µM (inactive)

## COc1ccccc1NC(=O)c1sc2nc(-c3ccco3)ccc2c1N
[16]
  IC50: 45.2 µM (active)
